Assay results taken from US20040167226A1, “Methods for the treatment of pain and traumatic injury using benzamides and compositions containing the same” (priority 2002, published 2004).

Experiments:
[1] = tested on: Taxol-induced mechanical allodynia; assay: Taxol-induced neuropathic pain rat model, 50% paw withdrawal threshold (up-down method); assay type: in vivo, Sprague-Dawley rats; conditions: rats
Excerpt: Sprague-Dawley male rats with 150-160 grams of body weight were used in the studies presented herein. Rats were trained in the enclosure one hour per day in the morning for a one week period prior to obtaining the baseline response. Whereas the mouse studies assessed percentage of response, the rat studies determined 50% of the paw withdrawal threshold, also called the up-down method as developed by Chung and colleagues. In order to obtain consistent data, naïve rats with paw withdrawal threshold no less than 4 grams were included for further studies. Taxol at a dose of 1 mg/kg (body weight) was administered daily to rats intraperitoneally. As observed in mice, the rats treated with Taxol daily developed stable mechanical allodynia on day 9 and thereafter. On day 13 and day 14 of Taxol induction, the rats pain behavior in term of 50% of paw withdrawal threshold was measured. Only those rats with paw withdrawal threshold measurements no greater than 7 grams for two consecutive days were included for drug testing. Generally speaking, the mechanical allodynia in Taxol treated rats fell in the range of 1-4 gram of paw withdrawal threshold.
1 ml per kg of body weight of either 50 mg/ml or 20 mg/ml of Compound A was administered to rats via oral gavage feeding (p.o.), to yield a dose of either 50 mg/Kg (body weight) or 20 mg/Kg (body weight). The same corresponding volume of 1% methylcellulose was used as vehicle control. 34 male Sprague-Dawely rats were employed for the study. The baseline paw withdrawal threshold (grams of force applied to the plantar area of the right hind paw) and neuropathic pain induction with daily intraperitoneal administration of 1 mg/kg (body weight) was performed as indicated in the previous section. The Taxol treatment was continued for 15 days until the pain threshold remained relatively stable. Animals with baseline greater than 4 grams and with threshold […] post induction were included in the drug testing. 27 rats met the criteria for the next step studies and were randomly assigned into four groups. Group 1 consisting of 7 rats was given 1% methylcellulose as vehicle control group, 1 ml of vehicle per kilograms of body weight was administered to animal via p.o.; group 2 with 6 animals was dosed at 20 mg/kg (body weight) of Compound A via oral gavage feeding (p.o.); group 3 with 7 rats was dosed at 50 mg/kg of Compound A, and the fourth group with 7 rats received Gabapentine at 50 mg/kg via p.o. in the same vehicle as a positive control group. Those rats were habituated in the enclosure and 50% of paw withdrawal thresholds (grams of force) were measured using a set of von Frey filaments, as described in the previous section, at time points of 1, 2, 3, 6, and 24 hours postdosing in a blinded fashion. The tester had no knowledge of which animals received drug or vehicle. It was noted that rats tested were very sleepy in the late afternoon (for 6 hour postdosing measurement), thus the data would not be reliable for 6-hour postdosing time points. […] After finishing the 24 hour postdosing measurement, the paw withdrawal threshold of each animal was calculated and data was analyzed.

[2] = tested on: fluid percussion brain injury; assay: Lateral fluid percussion injury (FPI) model of traumatic brain injury; assay type: in vivo; conditions: rats
Protocol: Compound A was tested for efficacy in an animal model of traumatic brain injury. Specifically, Compound A was evaluated in the lateral fluid percussion injury (FPI) model developed by McIntosh (McIntosh T. K., et. al (1989), Neuroscience 28:233-244). This model replicates many of the pathological aspects found in humans who have sustained traumatic brain injury. Furthermore, the damage caused by the injury is sensitive to pharmacological intervention, and thus provides a robust method for preclinical efficacy testing. In this model, animals are subjected to a fluid percussion brain injury, and are then given Compound A shortly thereafter. At specific time points, animals are evaluated using outcome measures that assess cognitive and locomoter deficits that are consequences of the injury. In addition, following behavioral analysis, animals are sacrificed and their brains assessed with respect to a variety of histopathological parameters.
For these studies, experimental parameters are used that were previously developed by Dr. Tracy McIntosh, Director of the University of Pennsylvania Head Injury Center. In these studies, male rats (350-400 g) are used for injuries. All animals are injured at a moderate/severe injury level (2.5-3.0 atm) via a craniotomy positioned over the left parietal cortex centered between Bregma and Lambda. […] Following behavioral testing, these animals are sacrificed, and their brains are analyzed for tissue damage (cortical volume loss, and neuronal cell counts), and other histopathological readouts.
The ability of Compound A to restore cognitive deficits in spatial memory and learning is evaluated at 48 hrs post injury using the Morris watermaze paradigm (Smith D. H. et al. (1991), J. Neurotrauma 8(4): 259-269; Schmidt, R. H. et al. (1999), J. Neurotrauma 16(12): 1139-1147). […] In the learning paradigm, the animals are trained to find the platform, and the reduction in latency with increasing number of training sessions is recorded. […]

[3] = 20 mg/kg p.o. in 1% methylcellulose

SMILES: CC(=O)Nc1ccc(C(=O)NC(C)(C)C)cc1 [Compound A, N-tert-butyl-4-acetamidobenzamide]
- analgesic effect on neuropathic pain (in words) [1, 3]: has an analgesic effect
- onset of analgesic effect [1, 3]: fast onset (one-hour postdosing)
- time of peak analgesic effect postdosing [1, 3]: 2 h
- paw withdrawal threshold ([1]; 20 mg/kg p.o. in 1% methylcellulose, vehicle about 4 grams): greater than 7 grams
- pain blocking effect (in words) ([1]; 50 mg/kg p.o. in 1% methylcellulose): showed a pain blocking effect at 1 hour postdosing, with the effect diminished later on
- analgesic effect compared with positive control ([1]; Compound A 20 mg/kg p.o. vs Gabapentine 50 mg/kg p.o.): comparable to the positive control
- effects on the other locomotor tests, beam balance and rotating pole (in words) ([2]; Study Number 1, 20 mg/kg/BID i.p. 7 days, 75% PEG 200): limited
- effects on the composite neuroscore (in words) ([2]; Study Number 1, 20 mg/kg/BID i.p. 7 days, 75% PEG 200, acute and long term): robust acute and long term effects
- effects in acute or long term locomotor or cognitive tests (in words) ([2]; Study Number 2, 10 and 20 mg/kg/BID i.p. 5 days, 50% PEG 400 and 25% ethanol): No effects of the compound were observed
